Results reported in BindingDB's records for patent US12419873 (Zhuhai United Laboratories Co., 2025).

Key:
[1] = target: Non-receptor tyrosine-protein kinase TYK2 (Homo sapiens, UniProt P29597); assay: TYK2 (h) Enzyme Reaction
[2] = target: T1, Tyrosine-protein kinase JAK3 (Homo sapiens, UniProt P52333); assay: JAK3 (h) Enzyme Reaction
T1 sequence (P52333 whole entry): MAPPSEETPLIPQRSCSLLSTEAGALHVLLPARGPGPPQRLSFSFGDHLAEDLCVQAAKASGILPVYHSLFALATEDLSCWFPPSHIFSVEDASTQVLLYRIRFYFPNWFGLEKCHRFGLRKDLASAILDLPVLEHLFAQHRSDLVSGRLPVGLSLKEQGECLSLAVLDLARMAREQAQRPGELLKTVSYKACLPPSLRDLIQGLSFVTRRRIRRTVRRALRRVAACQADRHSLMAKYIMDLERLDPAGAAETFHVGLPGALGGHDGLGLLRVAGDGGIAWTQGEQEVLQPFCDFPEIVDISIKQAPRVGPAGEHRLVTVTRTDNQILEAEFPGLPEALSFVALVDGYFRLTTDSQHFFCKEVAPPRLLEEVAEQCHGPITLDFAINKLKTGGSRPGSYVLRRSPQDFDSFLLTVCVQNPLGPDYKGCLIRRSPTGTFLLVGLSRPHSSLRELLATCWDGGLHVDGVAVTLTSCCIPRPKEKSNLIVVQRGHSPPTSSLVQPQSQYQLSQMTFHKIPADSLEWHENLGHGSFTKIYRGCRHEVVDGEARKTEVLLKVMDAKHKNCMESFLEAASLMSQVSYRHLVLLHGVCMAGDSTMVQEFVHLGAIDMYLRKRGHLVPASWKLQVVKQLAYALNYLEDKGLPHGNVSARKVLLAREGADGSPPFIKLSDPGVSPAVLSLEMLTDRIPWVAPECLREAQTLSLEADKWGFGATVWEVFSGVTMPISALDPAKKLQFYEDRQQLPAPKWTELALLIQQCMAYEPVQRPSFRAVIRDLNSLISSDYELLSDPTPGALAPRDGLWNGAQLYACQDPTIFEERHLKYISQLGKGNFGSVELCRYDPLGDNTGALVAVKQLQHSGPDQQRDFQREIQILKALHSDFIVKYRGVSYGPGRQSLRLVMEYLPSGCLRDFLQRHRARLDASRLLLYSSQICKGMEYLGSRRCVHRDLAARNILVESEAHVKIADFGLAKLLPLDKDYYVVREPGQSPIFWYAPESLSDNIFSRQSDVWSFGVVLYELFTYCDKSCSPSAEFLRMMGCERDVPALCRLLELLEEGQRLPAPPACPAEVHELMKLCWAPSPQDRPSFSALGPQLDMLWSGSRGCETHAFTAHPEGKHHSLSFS

[3] = target: Tyrosine-protein kinase JAK1 (Homo sapiens, UniProt P23458); assay: JAK1 (h) Enzyme Reaction
Chain of Tyrosine-protein kinase JAK1 (P23458 whole entry): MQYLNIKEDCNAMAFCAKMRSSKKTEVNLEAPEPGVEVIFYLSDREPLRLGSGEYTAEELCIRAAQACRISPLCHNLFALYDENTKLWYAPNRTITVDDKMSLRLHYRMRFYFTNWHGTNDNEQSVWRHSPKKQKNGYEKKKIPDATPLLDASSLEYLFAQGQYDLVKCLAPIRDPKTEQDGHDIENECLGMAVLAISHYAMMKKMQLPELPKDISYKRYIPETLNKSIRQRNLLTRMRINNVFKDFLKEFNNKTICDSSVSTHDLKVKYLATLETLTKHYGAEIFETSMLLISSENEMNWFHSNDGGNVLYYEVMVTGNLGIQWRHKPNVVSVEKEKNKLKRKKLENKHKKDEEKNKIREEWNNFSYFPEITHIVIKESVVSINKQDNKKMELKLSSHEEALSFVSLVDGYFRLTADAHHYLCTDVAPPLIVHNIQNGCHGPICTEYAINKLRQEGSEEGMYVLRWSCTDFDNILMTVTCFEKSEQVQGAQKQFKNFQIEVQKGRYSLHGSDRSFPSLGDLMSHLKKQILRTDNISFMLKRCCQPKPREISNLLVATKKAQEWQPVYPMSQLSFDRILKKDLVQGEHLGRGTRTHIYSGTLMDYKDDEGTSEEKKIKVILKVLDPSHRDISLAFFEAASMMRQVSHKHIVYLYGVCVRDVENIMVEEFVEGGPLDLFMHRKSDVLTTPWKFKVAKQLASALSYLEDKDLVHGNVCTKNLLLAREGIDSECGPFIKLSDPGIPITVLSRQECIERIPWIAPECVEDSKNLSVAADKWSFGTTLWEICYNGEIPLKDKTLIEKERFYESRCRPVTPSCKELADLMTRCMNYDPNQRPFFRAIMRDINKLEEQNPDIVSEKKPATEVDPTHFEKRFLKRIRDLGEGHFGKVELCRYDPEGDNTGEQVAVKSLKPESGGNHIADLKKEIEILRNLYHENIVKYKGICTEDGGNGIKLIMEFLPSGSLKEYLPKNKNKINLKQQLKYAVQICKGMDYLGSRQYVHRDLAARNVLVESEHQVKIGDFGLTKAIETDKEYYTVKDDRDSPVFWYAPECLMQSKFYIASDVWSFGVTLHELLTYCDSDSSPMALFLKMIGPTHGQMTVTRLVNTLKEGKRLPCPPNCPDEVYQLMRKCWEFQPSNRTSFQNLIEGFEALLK

[4] = target: Tyrosine-protein kinase JAK2 (Homo sapiens, UniProt O60674); assay: JAK2 (h) Enzyme Reaction
Chain of Tyrosine-protein kinase JAK2 (O60674 whole entry): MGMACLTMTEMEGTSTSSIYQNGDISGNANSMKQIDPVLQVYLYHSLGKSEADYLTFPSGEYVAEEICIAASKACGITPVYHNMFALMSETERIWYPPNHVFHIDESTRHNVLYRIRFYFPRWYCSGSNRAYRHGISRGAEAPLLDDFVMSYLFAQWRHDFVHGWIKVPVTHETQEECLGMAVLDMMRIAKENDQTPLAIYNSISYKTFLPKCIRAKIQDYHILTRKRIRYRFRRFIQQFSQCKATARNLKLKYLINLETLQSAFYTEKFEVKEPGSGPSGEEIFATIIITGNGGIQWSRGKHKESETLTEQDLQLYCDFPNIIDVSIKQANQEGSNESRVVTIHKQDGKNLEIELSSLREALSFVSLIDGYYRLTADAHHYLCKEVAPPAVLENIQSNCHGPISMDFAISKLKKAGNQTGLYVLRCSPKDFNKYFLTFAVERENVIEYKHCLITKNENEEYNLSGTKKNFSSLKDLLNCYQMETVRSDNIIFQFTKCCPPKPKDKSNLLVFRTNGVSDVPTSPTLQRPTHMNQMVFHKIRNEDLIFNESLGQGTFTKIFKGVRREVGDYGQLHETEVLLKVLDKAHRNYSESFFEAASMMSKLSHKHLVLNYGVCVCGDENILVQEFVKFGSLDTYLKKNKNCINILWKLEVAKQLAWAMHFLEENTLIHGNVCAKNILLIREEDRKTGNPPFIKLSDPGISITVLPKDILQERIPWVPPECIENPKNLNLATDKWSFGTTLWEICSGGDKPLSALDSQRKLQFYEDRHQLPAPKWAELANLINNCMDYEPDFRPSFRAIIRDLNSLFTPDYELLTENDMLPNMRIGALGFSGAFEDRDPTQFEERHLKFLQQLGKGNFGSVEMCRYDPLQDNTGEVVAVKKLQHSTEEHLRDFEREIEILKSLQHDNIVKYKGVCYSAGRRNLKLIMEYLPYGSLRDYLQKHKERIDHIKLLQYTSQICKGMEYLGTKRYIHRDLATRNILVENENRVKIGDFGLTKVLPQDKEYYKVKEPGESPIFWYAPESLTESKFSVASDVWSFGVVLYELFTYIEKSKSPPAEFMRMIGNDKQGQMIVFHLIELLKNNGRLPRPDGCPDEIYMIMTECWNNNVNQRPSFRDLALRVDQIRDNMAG

Chain of Non-receptor tyrosine-protein kinase TYK2 (P29597 whole entry): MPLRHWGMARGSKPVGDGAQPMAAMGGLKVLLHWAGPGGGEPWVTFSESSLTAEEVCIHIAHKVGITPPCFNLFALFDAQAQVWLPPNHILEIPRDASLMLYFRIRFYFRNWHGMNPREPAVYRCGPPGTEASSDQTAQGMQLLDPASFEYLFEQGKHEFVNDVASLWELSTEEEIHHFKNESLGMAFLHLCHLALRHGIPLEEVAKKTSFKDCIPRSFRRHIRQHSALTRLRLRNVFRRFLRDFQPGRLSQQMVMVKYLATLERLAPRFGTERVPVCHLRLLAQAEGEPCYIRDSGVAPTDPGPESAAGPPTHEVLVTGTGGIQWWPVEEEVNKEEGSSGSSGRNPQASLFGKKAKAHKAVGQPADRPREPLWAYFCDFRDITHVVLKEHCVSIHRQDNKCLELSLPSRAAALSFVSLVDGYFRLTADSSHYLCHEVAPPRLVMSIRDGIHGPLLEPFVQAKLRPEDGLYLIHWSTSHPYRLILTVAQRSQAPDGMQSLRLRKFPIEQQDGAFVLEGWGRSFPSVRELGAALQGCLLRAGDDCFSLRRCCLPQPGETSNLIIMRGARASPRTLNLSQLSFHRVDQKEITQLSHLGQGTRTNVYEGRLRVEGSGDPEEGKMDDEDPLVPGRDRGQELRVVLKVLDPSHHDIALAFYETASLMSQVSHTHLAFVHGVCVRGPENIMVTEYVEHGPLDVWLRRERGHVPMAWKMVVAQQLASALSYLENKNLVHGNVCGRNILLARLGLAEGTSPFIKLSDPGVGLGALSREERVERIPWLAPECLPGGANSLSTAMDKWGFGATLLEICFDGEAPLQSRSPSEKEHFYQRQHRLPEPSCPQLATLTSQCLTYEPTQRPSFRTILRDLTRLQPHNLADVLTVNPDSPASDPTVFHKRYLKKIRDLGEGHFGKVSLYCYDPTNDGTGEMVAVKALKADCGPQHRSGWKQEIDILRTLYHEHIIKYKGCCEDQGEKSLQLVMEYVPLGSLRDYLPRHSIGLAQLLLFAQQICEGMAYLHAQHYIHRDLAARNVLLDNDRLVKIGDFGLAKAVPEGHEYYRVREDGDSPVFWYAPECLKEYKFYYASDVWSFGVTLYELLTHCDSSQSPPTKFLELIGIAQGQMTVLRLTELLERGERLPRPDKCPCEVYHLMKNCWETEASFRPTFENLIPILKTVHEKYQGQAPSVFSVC

IC50 [1]: 175 nM | IC50 [2]: > 10000 nM | IC50 [3]: 224 nM | IC50 [4]: 624 nM
Structure (SMILES): N#CCC(=O)N1CC2(CCC(c3cccc4nc(NC(=O)[C@@H]5CC5(F)F)nn34)CC2)C1 [US12419873, Compound 9-5]
